In US8754233B2, “Pyrazolylbenzothiazole derivatives and their use as therapeutic agents” (Dermira (Canada), Inc., priority 2002, dated 2014) one finds IC50 data, which are given here for two molecules.

The test system of assay [1] is IFNg on ConA 1° splenocytes. Briefly: Inhibition of IFNγ release from ConA-stimulated splenocytes. Type of assay: cell-based, mouse. Conditions: ConA-stimulated Balb/c splenocytes, 18-24 hours, ELISA. As for the experimental part: T-lymphocytes obtained from mice spleens are a suitable sample for studying the activation properties of this immunologically important cell type. T-lymphocytes are the main regulators for inflammation. Concanavalin A (ConA) is an effective activator of T-lymphocytes, which allows T-lymphocytes to proliferate and produce inflammatory cytokines, such as Interferon (IFNγ) and regulatory cytokines, such as Interleukin 10 (IL-10).
The spleens were transferred onto mesh screen containing 10 ml of ice cold RPMI-5 (1× sodium pyruvate and 5% FBS) and gently ground with a pestle. The cell suspensions were centrifuged at 1500 rpm for 6 minutes at 4° C. […] The supernatant was discarded and the pellet washed two additional times. The cells were resuspended in RPMI-5 and the cell suspensions combined. The cells were counted and their concentration was adjusted to 2.8×10^6 cells/ml using RPMI-5.
The working concentration of ConA was […]. A 20× working concentration of Concanavalin A was […] was prepared using RPMI-5. The test compounds, dimethylsulfoxide (DMSO) negative vehicle control and staurosporine positive control were diluted twenty times using RPMI-5. Ten μL each of DMSO and staurosporine were combined with 180 μl of medium containing splenocytes in the wells, and 10 μl of 50 μg/ml ConA was immediately added. Medium without ConA was added to the control wells. […] The plates were incubated at 37° C. in 5% CO2 in humidified conditions overnight (18-24 hours) for INFγ.
At the completion of the stimulation described above, the plates were spun at 2000 rpm for 10 minutes. The supernatants (100 μl) from each well were transferred to fresh plates for INFγ analysis by ELISA.
INFγ levels in the supernatants from stimulated lymphocytes were determined with PharMingen's OptEIA™ INFγ Kit (PharMingen) according to manufacturer's directions. The data, shown in Table 2 infra, is represented as a percentage of INFγ inhibition by the following formula: INFγ inhibition=100−(AVG treatment/AVG DMSO control)*100.
Background: ELISA stands for enzyme-linked immunosorbent assay.

The test system of a further assay is MCP1 on HUVECS. Briefly: Inhibition of MCP-1 release from TNFα-stimulated HUVEC. Type of assay: cell-based, human. Conditions: 18-24 hours, ELISA. The source says: The activation of endothelial cells by pro-inflammatory cytokine TNF-α leads to the production of several chemokines. The release of these chemokines play an important role in leukocyte trafficking and extravasation of leukocytes into tissue during inflammation. MCP-1 and IL-8 are among the chemokines released upon stimulation of human endothelial cells (HUVECs) by TNFα, and contribute to migration of monocytes to the sites of inflammation. Cells should not be passaged more than 6 times.
Cells were maintained and grown in tissue culture flasks (T75) in endothelial cell growth medium (EGM, Clonetics) containing 5 additional supplements (EGM-5) in medium [human recombinant endothelial growth factor (hEGF), hydrocortisone (HC), bovine brain extract (BBE), fetal bovine serum (FBS) and Gentamycin (GA)] incubated at 37° C., 5% CO2. The cells should be propagated a maximum of 20 passages.
The plates were incubated overnight at 37° C., 5% CO2 to enable the cells to attach and grow.
The working concentration of TNFα was 1,000 pg/ml. A twenty times working concentration of TNFα was 20,000 pg/ml was prepared using EGM-5. The test compounds, DMSO negative vehicle control and staurosporine positive control were diluted 20× using EGM-5. Ten μL each of the compounds, DMSO and staurosporine were combined with 180 μl of medium containing HUVEC cells. Immediately following the addition of the compounds, 10 μl of […] TNFα was added to the wells. Medium without TNFα was added to the control wells. […] The plates were incubated at 37° C. in 5% CO2 in humidified conditions overnight (18-24 hours) for TNFα.
At the completion of the stimulation, the plates were spun at 2000 rpm for 10 minutes. The supernatants from each well were transferred to fresh plates for MCP1 analysis by ELISA.
[…] were determined with PharMingen's OptEIA™ MCP1 Kit (PharMingen) according to manufacturer's instructions.
The data is represented as a percentage of MCP1 inhibition by the following formula: % MCP1 inhibition=100−(AVG treatment/AVG DMSO control)*100.

Bounds are passed on as bounds.

Regarding `COc1cc2sc(-c3c(N4CCNCC4)n[nH]c3N)nc2cc1F` [4-(5-Fluoro-6-methoxybenzothiazole)-5-piperizin-1-yl-2H-pyrazol-3-ylamine], the 50% inhibitory concentration (IC50) turned out to be 6.1 µM in assay [1] and 10.9 µM in the assay on MCP1 on HUVECS.
Taken in the same sequence, the figures for `COc1cc2sc(-c3c(NCCN(C)C)n[nH]c3N)nc2cc1F` [N^3-(2-Dimethylaminoethyl)-4-(5-fluoro-6-methoxybenzothiazole)-1H-pyrazole-3,5-diamine] were 11 µM and > 25 µM.

Usually IC50 stands for the concentration that gives 50% inhibition. A high value points to lower potency.
